In ChEMBL document CHEMBL4811216, “Chemotherapy for human schistosomiasis: how far have we come? What's new? Where do we go from here?” (RSC Med Chem, 2020) one finds mortality, Activity and IC50 data, which are given here for eight compounds.

For experiment [1], the system named is Schistosoma mansoni. The experiment in a line: Antischistosomal activity against Schistosoma mansoni Schistosomula assessed as worm death at 10 uM incubated for 24 hrs relative to control. It counts as functional.
Experiment [2] has as its system Schistosoma haematobium. Nature of the experiment: Antischistosomal activity against Schistosoma haematobium assessed as worm death at 10 uM incubated for 96 hrs relative to control. It counts as functional.
For experiment [3], the target named is T1, Thioredoxin glutathione reductase (Schistosoma mansoni, UniProt Q962Y6).
T1 sequence (Q962Y6 whole entry): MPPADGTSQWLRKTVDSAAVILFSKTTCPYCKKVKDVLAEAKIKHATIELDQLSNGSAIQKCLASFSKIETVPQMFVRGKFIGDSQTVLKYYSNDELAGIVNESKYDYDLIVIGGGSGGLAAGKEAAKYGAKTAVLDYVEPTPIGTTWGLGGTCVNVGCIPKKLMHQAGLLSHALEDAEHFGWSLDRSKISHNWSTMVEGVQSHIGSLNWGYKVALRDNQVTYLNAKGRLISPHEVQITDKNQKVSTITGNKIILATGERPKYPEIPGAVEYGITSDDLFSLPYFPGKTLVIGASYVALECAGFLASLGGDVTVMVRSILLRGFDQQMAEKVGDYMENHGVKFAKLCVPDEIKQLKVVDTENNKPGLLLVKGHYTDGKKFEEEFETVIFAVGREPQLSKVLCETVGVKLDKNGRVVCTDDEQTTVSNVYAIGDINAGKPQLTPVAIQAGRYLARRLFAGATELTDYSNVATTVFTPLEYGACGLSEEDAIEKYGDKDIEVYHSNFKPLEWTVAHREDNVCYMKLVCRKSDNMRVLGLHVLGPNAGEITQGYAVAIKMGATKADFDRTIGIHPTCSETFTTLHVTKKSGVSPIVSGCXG
The experiment in a line: Inhibition of Schistosoma mansoni thioredoxin glutathione reductase incubated for 30 mins by DTNB assay.

Experiment [4] deals with Schistosoma mansoni. Nature of the experiment: Antischistosomal activity against Schistosoma mansoni assessed as worm death at 10 uM incubated for 48 hrs relative to control. It counts as functional.
In experiment [5] the test system is Schistosoma mansoni. Nature of the experiment: Antischistosomal activity against Schistosoma mansoni assessed as worm death at 10 uM incubated for 72 hrs relative to control. It counts as functional.
A further experiment concerns Schistosoma japonicum. The experiment in a line: Antischistosomal activity against Schistosoma japonicum assessed as worm death at 10 uM incubated for 120 hrs relative to control. It counts as functional.
Experiment [6] concerns Schistosoma mansoni. Nature of the experiment: Antischistosomal activity against adult Schistosoma mansoni assessed as worm death at 10 uM incubated for 144 hrs relative to control. The format is functional.
The subject of experiment [7] is Schistosoma haematobium. The experiment in a line: Antischistosomal activity against Schistosoma haematobium assessed as worm death at 10 uM incubated for 120 hrs relative to control. The format is functional.
Experiment [8] deals with Schistosoma mansoni. Nature of the experiment: Antischistosomal activity against juvenile Schistosoma mansoni assessed as worm death at 10 uM incubated for 72 hrs relative to control. The format is functional.
The test system of experiment [9] is Schistosoma mansoni. Nature of the experiment: Antischistosomal activity against Schistosoma mansoni cercariae assessed as worm death incubated for 2 hrs by microscopic method relative to control. The format is functional.
For experiment [10], the system named is Schistosoma mansoni. The experiment in a line: Antischistosomal activity against Schistosoma mansoni miracidia assessed as worm death incubated for 1 to 2 hrs by microscopic method relative to control. It counts as functional. The conditions noted are these: time 1-2 hrs.
For experiment [11], the system named is Schistosoma mansoni. Nature of the experiment: Antischistosomal activity against Schistosoma mansoni assessed as worm death at 50 uM in presence of red blood cells relative to control. It counts as functional.
Experiment [12] deals with Schistosoma mansoni. The experiment in a line: Antischistosomal activity against adult Schistosoma mansoni Puerto-Rican incubated for 7 days by stereomicroscopy. The format is functional. The conditions noted are these: time 7 day.
The test system of experiment [13] is Schistosoma mansoni. Nature of the experiment: Antischistosomal activity against Schistosoma mansoni schistosomula incubated for 24 hrs by celltiter-glo reagent based assay. The format is functional, organism-based. For orientation: In ATP-based viability assays light output follows the ATP content of the culture.
The test system of experiment [14] is Schistosoma mansoni. The experiment in a line: Antischistosomal activity against Schistosoma mansoni Liberian NTS at 10 uM measured after 24 hrs relative to control. It counts as functional.
The test system of experiment [15] is Schistosoma mansoni. Nature of the experiment: Antischistosomal activity against adult Schistosoma mansoni BH assessed as reduction in motor activity at 150 to 200 ug/ml incubated for 120 hrs measured every 24 hrs by light microscopy relative to control. It counts as functional. The arrangement: scale not given: the % may be the effect or the level left. The conditions noted are these: dose 150-200 µg/ml, at 150 to 200 µg/mL.

Experiment [16] relates to Schistosoma mansoni. Nature of the experiment: Antischistosomal activity against adult Schistosoma mansoni BH assessed as tegument damage at 150 to 200 ug/ml incubated for 120 hrs measured every 24 hrs by light microscopy relative to control. The format is functional. The conditions noted are these: dose 150-200 µg/ml, at 150 to 200 µg/mL.
Experiment [17] deals with Schistosoma mansoni. Nature of the experiment: Antischistosomal activity against adult Schistosoma mansoni BH infected in Balb/C mouse assessed as reduction in number of eggs at 40 mg/kg, po administered at 45 days post infection and measured at 15 days post treatment relative to control. It counts as functional. The conditions noted are these: time 15 day. The arrangement: scale not given: the % may be the effect or the level left.

Experiment [18] concerns Schistosoma mansoni. Nature of the experiment: Antischistosomal activity against juvenile Schistosoma mansoni BH infected in Balb/C mouse assessed as reduction in worm burden at 40 mg/kg, po administered at 21 days post infection and measured at 15 days post treatment relative to control. It counts as functional. The arrangement: scale not given: the % may be the effect or the level left. The conditions noted are these: time 15 day.

Experiment [19] has as its system Schistosoma mansoni. Nature of the experiment: Antischistosomal activity against adult Schistosoma mansoni BH assessed as worm death at 150 to 200 ug/ml incubated for 120 hrs measured every 24 hrs by light microscopy relative to control. The format is functional. The conditions noted are these: dose 150-200 µg/ml, at 150 to 200 µg/mL.
For experiment [20], the system named is Schistosoma mansoni. Nature of the experiment: Antischistosomal activity against adult Schistosoma mansoni BH infected in Balb/C mouse assessed as reduction in worm burden at 40 mg/kg, po administered at 45 days post infection and measured at 15 days post treatment relative to control. The format is functional. Set-up: scale not given: the % may be the effect or the level left. The conditions noted are these: time 15 day.

Experiment [21] deals with Schistosoma mansoni. Nature of the experiment: Antischistosomal activity against Schistosoma mansoni BH assessed as tegument damage at 3.125 to 25 ug/ml measured up to 120 hrs by inverted microscopic method relative to control. The format is functional. The conditions noted are these: dose 3.125-25 µg/ml; time hrs <=120; at 3.125 to 25 µg/mL.
Experiment [22] relates to Schistosoma mansoni. The experiment in a line: Antischistosomal activity against Schistosoma mansoni BH assessed as changes in motor activity at 3.125 to 25 ug/ml measured up to 120 hrs by inverted microscopic method relative to control. The conditions noted are these: dose 3.125-25 µg/ml; time hrs <=120; at 3.125 to 25 µg/mL. The format is functional.
In experiment [23] the test system is Schistosoma mansoni. Nature of the experiment: Antischistosomal activity against Schistosoma mansoni BH infected in Balb/C mouse assessed as reduction in worm burden at 100 mg/kg, po measured after 2 weeks by Kato-Katz quantitative method. The format is functional. Set-up: Activity: scale not given: the % may be the effect or the level left.
The test system of experiment [24] is Schistosoma mansoni. Nature of the experiment: Antischistosomal activity against juvenile Schistosoma mansoni BH infected in Balb/C mouse assessed as reduction in worm burden at 100 mg/kg, po measured after 2 weeks. Set-up: scale not given: the % may be the effect or the level left. It counts as functional.
Experiment [25] relates to Schistosoma mansoni. Nature of the experiment: Antischistosomal activity against adult Schistosoma mansoni BH infected in Balb/C mouse assessed as reduction in worm burden at 100 mg/kg, po measured after 2 weeks. The format is functional. Set-up: scale not given: the % may be the effect or the level left.
Experiment [26] relates to Schistosoma mansoni. Nature of the experiment: Antischistosomal activity against Schistosoma mansoni BH assessed as tegument damage at 12.5 to 100 uM measured up to 72 hrs by confocal laser scanning microscopic method relative to control. It counts as functional. The conditions noted are these: dose 12.5-100 µM, time hrs <=72.
Experiment [27] has as its system Schistosoma mansoni. Nature of the experiment: Antischistosomal activity against Schistosoma mansoni BH assessed as reduction in motor activity at 12.5 to 100 uM measured up to 72 hrs by light microscopic method relative to control. The format is functional. The arrangement: scale not given: the % may be the effect or the level left. The conditions noted are these: dose 12.5-100 µM, time hrs <=72.

Experiment [28] has as its system Schistosoma mansoni. Nature of the experiment: Antischistosomal activity against Schistosoma mansoni BH assessed as worm death at 12.5 to 100 uM measured up to 72 hrs by light microscopic method relative to control. The format is functional. The conditions noted are these: dose 12.5-100 µM, time hrs <=72.

pIC50: −log10 of the molar value.

For the compound `O=c1c(Cl)c(-n2cc(CO)nn2)cnn1-c1ccccc1`, the mortality (commonly the percentage killed) at 10 µM with Schistosoma mansoni [1] came to 100%. The Activity came to 100% with Schistosoma haematobium [2], 100% with Schistosoma mansoni [4], 100% with Schistosoma mansoni [5] and 70% in the experiment on Schistosoma japonicum. In experiment [3], the negative-log IC50 (pIC50) (as a rule, the negative decadic logarithm of the IC50, by convention in mol/L) is 5.55.
For the compound `O=[N+]([O-])c1ccc2c(c1)S(=O)(=O)C=C2`, the mortality at 10 µM with Schistosoma mansoni [1] was found to be 100%; in the experiment with Schistosoma mansoni [6] it was 76%; in the experiment with Schistosoma haematobium [7] it was 85%; in the experiment with Schistosoma japonicum (Schistosoma japonicum), 69%; in the experiment with Schistosoma mansoni [8] it was 100%. This compound had a pIC50 in [3] of 5.70.
Regarding `CC1=CC(=O)CC(C)(C)C1(O)/C=C/C(C)O[C@@H]1O[C@H](COC(=O)c2cc(O)c(O)c(O)c2)[C@@H](O)[C@H](O)[C@H]1O` (stereo partly drawn), the mortality is 41% with Schistosoma mansoni [9] and 99.7% in the experiment with Schistosoma mansoni [10].
For the compound `CC1=C(Cc2ccc(C(F)(F)F)cc2)C(=O)c2cc(C)cnc2C1=O`, in the experiment on Schistosoma mansoni [11], the Activity is reported as 100%.
Turning to `COC1=C(Cc2ccc(OC)cc2)C(=O)C2=C(NCCS2(=O)=O)C1=O`, the Activity in the experiment on Schistosoma mansoni [12] was 100%. The compound also showed a negative logarithm of the IC50 (pIC50) in the experiment with Schistosoma mansoni [13] of 4.86.
For `Cn1cnc(C[C@H]2CCC(=O)[C@@H]2[C@H](O)c2ccccc2)c1`, the Activity is given as 100% in the experiment with Schistosoma mansoni [14]; 100% in the experiment with Schistosoma mansoni [15]; 100% in the experiment with Schistosoma mansoni [16]; 80% with Schistosoma mansoni [17]; 50.2% in the experiment with Schistosoma mansoni [18]; 70% in the experiment on Schistosoma mansoni [20]. The mortality in the experiment with Schistosoma mansoni [19] is given as 100%.
As for `Cn1cncc1C[C@H]1CCC(=O)[C@H]1C(O)c1ccccc1` (stereo partly drawn), the Activity in the experiment with Schistosoma mansoni [21] was 100%; in the experiment with Schistosoma mansoni [22], 100%; with Schistosoma mansoni [24], 58%; in the experiment on Schistosoma mansoni [25], 60.6%. Also, in the experiment on Schistosoma mansoni [23] (Schistosoma mansoni, BH, po, 336 h), the mortality at 100 mg/kg came out at 64.1%.
Turning to `C=C1C(=O)O[C@@H]2C3O[C@]3(C)CC/C=C(\C)CC[C@@H]12` (stereo partly drawn), the results for the Activity in the experiment on Schistosoma mansoni [26], in the experiment on Schistosoma mansoni [27] and with Schistosoma mansoni [23] were 100%, 100% and 64.1%, respectively. Further, the mortality with Schistosoma mansoni [28] was found to be 100%.
